This test deals with lung cancer cell CRL-5802. Kind of test: Cytotoxicity test of the medical composition and of camptothecin (MTT). In kind it is cell-based. The settings on record: CRL-5802 cells, camptothecin concentration 1 μg/mL, treatment time 24 hours. The protocol: 5000 cells/well of CRL-5802 were placed in a 96-well plate containing 100 μL of DMEM, followed by cultivation for 24 hours at 37° C. and 5% CO2. The cell culture medium was periodically replaced during the cultivation period. Thereafter, the medical composition described in the section of “Preparation of medical composition” was mixed with DMEM to prepare an original solution having a concentration of 250 μg/mL (the concentration of camptothecin was 10 μg/mL). The original solution was diluted with DMEM to obtain six diluted solutions such that the concentrations of camptothecin in the six diluted solutions were respectively 4 μg/mL, 2 μg/mL, 1 μg/mL, 0.2 μg/mL, 0.1 μg/mL and 0.04 μg/mL. The original solution and the six diluted solutions were added into the respective wells containing cell s such that the final concentrations of camptothecin were adjusted to 5 μg/mL, 2 μg/mL, 1 μg/mL, 0.5 μg/mL, 0.1 μg/mL, 0.05 μg/mL, and 0.02 μg/mL respectively (experimental groups). The cells in the control group were cultured with DMEM without addition of the medical composition. The cells were further cultivated for 24 hours. […] The absorbance of each of the wells containing cells at 490 nm was recorded, thereby calculating the cell survival rate based on the aforesaid equation. […]

Drawing on patent US20120264830A1, “CHONDROITIN SULFATE-POLYCAPROLACTONE COPOLYMER, METHOD FOR PREPARING THE SAME AND APPLICATION THEREOF” (KAOHSIUNG MEDICAL UNIVERSITY, priority 2011, published 2012), this text covers cell survival rate for one compound.

`CC[C@@]1(O)C(=O)OCc2c1cc1n(c2=O)Cc2cc3ccccc3nc2-1` [camptothecin] yielded a cell survival rate of 30%.
